Converted amounts (≈) assume the structure as drawn.
Columns and labels:
ai5γ group II intron = assay: Radioanalytic self-splicing assay of SE RNA (Ki); assay type: biochemical, Saccharomyces cerevisiae; conditions: 8 mM MgCl2, 100 mM KCl, pH 7.5, 30° C.
Protocol: Internally labeled SE RNA (2 nM) was incubated with various concentrations of inhibitor compound under near-physiological conditions (in 50 mM MOPS, pH 7.5, 8 mM MgCl2, 100 mM KCl) at 30° C. Aliquots at different time points were quenched and analyzed on 5% denaturing polyacrylamide gel as previously described (Daniels et al., 1996, Journal of molecular biology, 256:31-49). Data were fit to a single-exponential equation to determine the first order rate constants (kobs). The latter were then plotted against the concentration of the inhibitor and fit to the equation for non-competitive inhibition to determine Ki values: kobs=kmax/(1+[I]/Ki), where kobs and kmax are the first order rate constants measured in the presence and in the absence of the inhibitor, respectively, [I] is the concentration of the inhibitor and Ki is the inhibition constant. Experiments were performed four times for API-014, three times for APY-090, Intronistat A, and Intronistat B and twice for the remaining compounds to ensure reproducibility. Data represent average±s.e.m.

HEK-293T cells = assay: Cytotoxicity in HEK-293T cells (Cell Titer Glo); assay type: cell-based, human; conditions: Homo sapiens, cytotoxicity, 24 hours with compound, read-out: IC50 HEK-293
Protocol: HEK-293T cells were cultured in Dulbecco's Modified Eagle's Medium (DMEM) (Gibco) supplemented with 10% Fetal Bovine Serum (FBS, Gibco) and 100 U/ml of Penicillin-Streptomycin (Gibco) at 37° C. and 5% CO2. For the cytotoxicity experiments, cells were aliquoted into black 96-well plates with a clear bottom (Corning 3603) at a concentration of 10,000 cells per well. The cells were grown at 37° C., 5% CO2 for 5-6 hours, then the medium was replaced with the same medium without FBS and cells were grown at 37° C., 5% CO2 for 24 hours. Freshly prepared stock solutions of test compounds (12.8 mg/ml in DMSO) were serially diluted 1:2 with DMSO into the first 11 successive wells of a 12-well row on a 96-well plate as described above. Well 12 was used as a growth control (no compound). […] After incubation, cell viability was determined using the luminescent Cell Titer Glo cell viability assay (Promega), in which 100 μl of the assay reagent was added to each well of the assay plate. After gentle shaking for 7-10 minutes, the plates were analyzed on a Synergy H1 plate reader (BioTek). Luminescence was plotted against the compound concentration and IC50 values were determined by fitting the data to a 4-parameter logistic function c+(d−c)/(1+(x/a)^b), where a is the IC50, b is the slope parameter, c is the minimum response and d is the maximum response. Experiments were replicated to ensure reproducibility.

C. parapsilosis = assay: MIC determination against C. parapsilosis; assay type: cell-based, Candida parapsilosis; conditions: Lodderomyces parapsilosis; RPMI-1640, 35° C. or 37° C., turbidity after 24 and 48 hours
Protocol: Minimal inhibitory concentrations (MICs) for C. parapsilosis were determined in a final volume of 100 μl. Fresh stock solutions of control antifungal drugs (Amphotericin B and Itraconazole) and of test compounds were prepared at 3.2 mg/ml and at 12.8 mg/ml respectively in DMSO. After placing the stock in the first well, solutions of test compounds and antifungal controls were serially diluted 1:2 with DMSO into the first […] successive wells of a 12-well row on a 96-well plate (as described above). After dilution, 2.5 μl from each of these 10 wells were transferred onto a separate 96-well plate and diluted with 122.5 μl of RPMI-1640 medium (Sigma). Wells 11 and 12 contained 2.5 μl DMSO and 122.5 μl of RPMI-1640 as a positive growth control (no compound) and sterility control (no inoculum added). A 50 μl volume was taken from each of the RPMI dilutions (wells 1-12) and transferred to the wells of a third 96-well plate (assay plate), where they were mixed with an equal volume (50 μl) of freshly prepared inoculum of C. parapsilosis in RPMI-1640 medium, set at a density to provide the 0.5×10^3 to 2.5×10^3 colony forming units per 1 mL (except for the sterility control). Sterility control was mixed with 50 μl of sterile medium.
The final concentration range of the assay was 0.25-128 μg/ml for test compounds and 0.0625-32 μg/ml for Amphotericin B and Itraconazole. The final concentration of DMSO was 1%. The assay plate was incubated at 35° C. or 37° C. and visually analyzed for turbidity after 24 and 48 hours of incubation. The lowest compound concentration at which no growth was apparent is reported as the MIC. All experiments were performed in triplicate.

[1] = system: ai5γ group II intron (D135 ribozyme); assay: Fluorescent D135 ribozyme cleavage assay (IC50); assay type: biochemical, Saccharomyces cerevisiae; conditions: D135 ribozyme cleavage of substrate 17/2 DL, 100 mM MgCl2, 500 mM KCl, 37° C., 10 minutes
Protocol: The D135 ribozyme (Su et al., 2005, Nucleic Acids Res, 33:6674-6687), fluorescently labeled oligo substrate 17/2 DL (FIG. 1A-FIG. 1D) (both at 20 nM final concentrations in 50 mM MOPS, pH 7.0, 100 mM MgCl2, 0.5M KCl), and the test compounds (final concentration of 10 μM in 50 mM MOPS, pH 7.0, 100 mM MgCl2, 0.5M KCl) were aliquoted onto black non-binding 384-well plates (Corning 3757) using the multidrop combi (ThermoFisherScientific) and pintool (V & P Scientific). The reaction mixtures were incubated at 37° C. for 45 minutes, then the reaction was quenched with 100 mM EDTA and fluorescence intensity was analyzed on a Tecan Infinite multimode plate reader (λex 520 nm, λem 560 nm, 5 nm bandwidth). Data were normalized to untreated wells and wells lacking the D135 ribozyme, and percent of inhibition was calculated using ActivityBase (IDBS). The Z′-factor was calculated as described (Zhang et al., 1999, J Biomol Screen, 4:67-73): Z′=1−3×(σp+σn)/|μp−μn|, • where μp and σn are mean value and standard deviation for the positive control (substrate only), and where μn and σn are mean value and standard deviation for the negative control (no compound). The average Z′-factor from the screen was 0.83±0.03. IC50 Measurement for the Small Molecule Inhibition of the D135 Ribozyme Cleavage Reaction.
Black 96-well plates (Corning 3695) were filled with 50 μl of solution containing 20 nM D135 ribozyme, 20 nM double-labeled substrate 17/2 DL and small molecule inhibitor in 50 mM MOPS, pH 7.0, 100 mM MgCl2 and 500 mM KCl. Small molecule inhibitors were tested at 19 different concentrations ranging from 5 nM to 1 mM. Plates were incubated at 37° C. for 10 minutes, then reaction mixtures were quenched with 100 mM EDTA and analyzed on the Synergy H1 plate reader (BioTek). Each experiment was performed in triplicate. Data were fit to a 4-parameter logistic function c+(d−c)/(1+(x/a)^b), where a is the IC50, b is the slope parameter, c is the minimum response and d is the maximum response. Data are reported as average±s.e.m

SMILES | Ki (ai5γ group II intron) | IC50 (HEK-293T cells) | MIC (C. parapsilosis) | IC50 [1] | IC50 ([1]; listed as compound 1)
O=C1/C(=C/c2ccc(B(O)O)cc2)Oc2cc(O)cc(O)c21 [APY-006] | 55 µM |  |  |  | 
O=C(c1cc(O)c(O)c(O)c1)N1CCc2ccccc2C1 [APY-085] |  | 18.7 mg/L | 32 mg/L (≈ 112 µM) | 6.4 µM | 
O=C(N/N=C/c1cccc(O)c1)c1cc(O)c(O)c(O)c1 [APY-040] |  | 30.1 mg/L | 8 mg/L (≈ 27.8 µM) | 9.9 µM | 
COc1cc(/C=N/NC(=O)c2cc(O)c(O)c(O)c2)cc(OC)c1O [APY-035] |  | 39.3 mg/L | 4 mg/L (≈ 11.5 µM) | 7.7 µM | 
Oc1cc(-c2nc3ccc(C(F)(F)F)cc3s2)cc(O)c1O [NED-2016] |  | 1.5 mg/L | 4 mg/L (≈ 12.2 µM) | > 1000 µM | 
O=C1/C(=C/c2cc(O)c(O)c(O)c2)Oc2cc(O)cc(O)c21 [Compound 1, reference compound] | 2.1 ± 0.6 µM |  |  | 2.3 ± 0.4 µM | 2 µM
COc1cc(/C=C2\Oc3cc(O)cc(O)c3C2=O)cc(OC)c1OC [APY-003] |  | > 64 mg/L | > 128 mg/L | > 500 µM | 
O=C(N/N=C/c1c(OCc2ccccn2)ccc2ccccc12)c1cc(O)c(O)c(O)c1 [NED-2175, (E)-3,4,5-trihydroxy-N′-((2-(pyridin-2-ylmethoxy)naphthalen-1-yl)methylene)benzohydrazide] |  | 14 mg/L | 4 to 8 mg/L (≈ 9.31 to 18.6 µM) | 2.3 ± 0.8 µM | 
COc1cccc(/C=N/NC(=O)c2ccc(B(O)O)cc2)c1O [APY-018] | 660 µM |  |  |  | 
O=C(N/N=C/c1c(O)ccc2ccccc12)c1cc(O)c(O)c(O)c1 [NED-2037, (E)-3,4,5-trihydroxy-N′-((2-hydroxynaphthalen-1-yl)methylene)benzohydrazide] |  | 2.8 mg/L | 16 mg/L (≈ 47.3 µM) | 1.8 ± 0.5 µM | 
COc1ccc(/C=N/NC(=O)c2cc(O)c(O)c(O)c2)c(OC)c1 [NED-2036, N′-(2,4-dimethoxybenzylidene)-3,4,5-trihydroxybenzohydrazide] |  | 8.2 mg/L | 8 mg/L (≈ 24.1 µM) | 14 ± 1 µM | 
O=C(c1cc(O)c(O)c(O)c1)N1CCC(c2ccccc2)C1 (centres unmarked) [APY-086] |  | 43.7 mg/L | 64 mg/L (≈ 214 µM) | 61 µM | 
COc1ccc2ccccc2c1/C=N/NC(=O)c1cc(O)c(O)c(O)c1 [NED-2173, (E)-3,4,5-trihydroxy-N′-((2-methoxynaphthalen-1-yl)methylene)benzohydrazide] |  | 8.6 mg/L | 8 mg/L (≈ 22.7 µM) | 6 ± 1 µM | 
O=C(N/N=C/c1cncnc1)c1cc(O)c(O)c(O)c1 [APY-057] |  | 39.4 mg/L | 16 mg/L (≈ 58.3 µM) | 12.9 µM | 
C#CCOc1ccc2ccccc2c1/C=N/NC(=O)c1cc(O)c(O)c(O)c1 [NED-2174, (E)-3,4,5-trihydroxy-N′-((2-(prop-2-yn-1-yloxy)naphthalen-1-yl)methylene)benzohydrazide] |  | 2.7 mg/L | 4 to 8 mg/L (≈ 10.6 to 21.3 µM) | 5 ± 1 µM | 
Cc1[nH]c(/C=C/C(=O)c2cc(O)c(O)c(O)c2)c(C)c1C(=O)N1CCN(Cc2ccc(F)cc2)CC1 [NED-2040] |  | 7.5 mg/L | 8 mg/L (≈ 16.2 µM) | > 1000 µM | 
COc1cccc(/C=N/NC(=O)c2ccc(O)c(O)c2)c1O [APY-054] |  | > 64 mg/L | > 128 mg/L | > 500 µM | 
O=C(c1cc(O)c(O)c(O)c1)N1CCN(c2ccccc2)CC1 [NED-2015] |  | 4.4 mg/L | 16 to 32 mg/L (≈ 50.9 to 102 µM) | > 1000 µM | 
O=C(N/N=C/c1ccc2ccccc2c1)c1cc(O)c(O)c(O)c1 [NED-2135, (E)-3,4,5-trihydroxy-N′-(naphthalen-2-ylmethylene)benzohydrazide] |  | 2.4 mg/L | 2 mg/L (≈ 6.21 µM) | 0.8 ± 0.2 µM | 
O=C(Nc1cc(O)c(O)c(O)c1)N1CCN(c2ccc(Cl)c(Cl)c2)CC1 [NED-2035] |  | 1.6 mg/L | > 128 mg/L | 55 ± 4 µM | 
Oc1cc(-c2csc(-c3ccc(Cl)cc3)n2)cc(O)c1O [NED-2014] |  | 0.6 mg/L | 8 mg/L (≈ 25 µM) | 46 ± 2 µM | 
O=C(N/N=C/c1ccc(O)cc1)c1cc(O)c(O)c(O)c1 [APY-032] |  | 4.14 mg/L | 8 mg/L (≈ 27.8 µM) | 10.6 µM | 
COc1ccc(/C=N/NC(=O)c2cc(O)c(O)c(O)c2)cc1OC [APY-041] |  | 49.5 mg/L | 8 mg/L (≈ 24.1 µM) | 3.8 µM | 
O=C(N/N=C/c1cccc2ccccc12)c1cc(O)c(O)c(O)c1 [NED-2134, (E)-3,4,5-trihydroxy-N′-(naphthalen-1-ylmethylene)benzohydrazide] |  | 4.2 mg/L | 2 to 4 mg/L (≈ 6.21 to 12.4 µM) | 3.3 ± 1 µM | 

Reference: patent publication US12421257B2, “Compositions and methods for inhibiting group II intron RNA” (YALE UNIVERSITY, priority 2018, dated 2025)
